In patent US20230226005A1, “Methods of Treating, Ameliorating, Shortening Duration, and/or Reversing Symptoms and/or Complications of a Coronavirus Infection” (Yale University, priority 2020, published 2023):

Key:
COVID-19 = conditions: hospitalized COVID-19 patients; 200 mg po three times daily for 5 days; cited from earlier work
SARS-CoV-2 = assay: Phase IIa double-blind placebo-controlled study, camostat mesylate 200 mg four times daily for seven days: viral load (log10) by COVID-19 RT-PCR of nasopharyngeal swab and saliva; type: in vivo; conditions: for viral load, Fitzmaurice mixed model, Common baseline: day 0; for viral load change Effect (camostat vs placebo), Fitzmaurice mixed model, visit 2 / viral load, Fitzmaurice mixed model, visit 2 / viral load, Fitzmaurice mixed model, visit 2 change: day 2; for viral load change Effect (camostat vs placebo), Fitzmaurice mixed model, visit 3(D4) / viral load, Fitzmaurice mixed model, visit 3(D4) / viral load, Fitzmaurice mixed model, visit 3(D4) change: day 4; for viral load change Effect (camostat vs placebo), Fitzmaurice mixed model, visit 4(D6) / viral load, Fitzmaurice mixed model, visit 4(D6) / viral load, Fitzmaurice mixed model, visit 4(D6) change: day 6

CN(C)C(=O)COC(=O)Cc1ccc(OC(=O)c2ccc(NC(=N)N)cc2)cc1 [camostat, 4-[[4-[(Aminoiminomethyl)amino]benzoyl]oxy]benzeneacetic acid 2-(dimethylamino)-2-oxoethyl ester]
adverse effects (COVID-19): adverse effects were not observed | effect on clinical severity (e.g. escalation to ICU admission) (COVID-19): did not have an observable effect | viral load, Fitzmaurice mixed model, Common baseline (SARS-CoV-2; N gene): 6.5 (6, 6.9) ^ log10 | viral load change Effect (camostat vs placebo), Fitzmaurice mixed model, visit 2 (SARS-CoV-2; N gene): −0.06 (−0.83, 0.7) log10 | viral load, Fitzmaurice mixed model, visit 2 (SARS-CoV-2; N gene): 5.3 (4.6, 5.9) log10 | viral load, Fitzmaurice mixed model, visit 2 change (SARS-CoV-2; N gene): −1.2 (−1.8, −0.6) log10 | viral load change Effect (camostat vs placebo), Fitzmaurice mixed model, visit 3(D4) (SARS-CoV-2; N gene): −0.74 (−1.51, 0.03) log10 | viral load, Fitzmaurice mixed model, visit 3(D4) (SARS-CoV-2; N gene): 4.4 (3.8, 5.1) log10 | viral load, Fitzmaurice mixed model, visit 3(D4) change (SARS-CoV-2; N gene): −2 (−2.6, −1.5) log10 | viral load change Effect (camostat vs placebo), Fitzmaurice mixed model, visit 4(D6) (SARS-CoV-2; N gene): −0.23 (−1.4, 0.94) log10 | viral load, Fitzmaurice mixed model, visit 4(D6) (SARS-CoV-2; N gene): 2.8 (2, 3.7) ^ log10 | viral load, Fitzmaurice mixed model, visit 4(D6) change (SARS-CoV-2; N gene): −3.6 (−4.5, −2.8) log10 | change in viral load from baseline, Mean (SARS-CoV-2; N gene, visit 1 (day 0)): 0.00 log10 | change in viral load from baseline, Median (SARS-CoV-2; N gene, visit 1 (day 0)): 0.00 log10 | viral load (log10) Mean (SARS-CoV-2; N gene, visit 1 (day 0)): 6.35 log10 | viral load (log10) Median (SARS-CoV-2; N gene, visit 1 (day 0)): 6.47 log10 | change in viral load from baseline, Mean (SARS-CoV-2; N gene, visit 2 (day 2)): −1.15 log10 | change in viral load from baseline, Median (SARS-CoV-2; N gene, visit 2 (day 2)): −1.14 log10 | viral load (log10) Mean (SARS-CoV-2; N gene, visit 2 (day 2)): 4.89 log10 | viral load (log10) Median (SARS-CoV-2; N gene, visit 2 (day 2)): 4.49 log10 | change in viral load from baseline, Mean (SARS-CoV-2; N gene, visit 3 (day 4)): −2.07 log10 | change in viral load from baseline, Median (SARS-CoV-2; N gene, visit 3 (day 4)): −2.32 log10 | viral load (log10) Mean (SARS-CoV-2; N gene, visit 3 (day 4)): 4.35 log10 | viral load (log10) Median (SARS-CoV-2; N gene, visit 3 (day 4)): 4.56 log10 | change in viral load from baseline, Mean (SARS-CoV-2; N gene, visit 4 (day 6)): −3.41 log10 | change in viral load from baseline, Median (SARS-CoV-2; N gene, visit 4 (day 6)): −3.07 log10 | viral load (log10) Mean (SARS-CoV-2; N gene, visit 4 (day 6)): 2.58 log10 | viral load (log10) Median (SARS-CoV-2; N gene, visit 4 (day 6)): 2.48 log10 | change in viral load from baseline, Mean (SARS-CoV-2; N gene, visit 5 (day 14)): −5.21 log10 | change in viral load from baseline, Median (SARS-CoV-2; N gene, visit 5 (day 14)): −5.52 log10 | viral load (log10) Mean (SARS-CoV-2; N gene, visit 5 (day 14)): 1.21 log10 | viral load (log10) Median (SARS-CoV-2; N gene, visit 5 (day 14)): 0.12 log10 | change in viral load from baseline, Mean (SARS-CoV-2; N gene, visit 6 (day 28)): −6.33 log10 | change in viral load from baseline, Median (SARS-CoV-2; N gene, visit 6 (day 28)): −6.60 log10 | viral load (log10) Mean (SARS-CoV-2; N gene, visit 6 (day 28)): 0.05 log10 | viral load (log10) Median (SARS-CoV-2; N gene, visit 6 (day 28)): 0.00 log10 | change in viral load from baseline, Mean (SARS-CoV-2; ORF1ab gene, visit 1 (day 0)): 0.00 log10 | change in viral load from baseline, Median (SARS-CoV-2; ORF1ab gene, visit 1 (day 0)): 0.00 log10 | viral load (log10) Mean (SARS-CoV-2; ORF1ab gene, visit 1 (day 0)): 6.17 log10 | viral load (log10) Median (SARS-CoV-2; ORF1ab gene, visit 1 (day 0)): 6.50 log10 | change in viral load from baseline, Mean (SARS-CoV-2; ORF1ab gene, visit 2 (day 2)): −1.17 log10 | change in viral load from baseline, Median (SARS-CoV-2; ORF1ab gene, visit 2 (day 2)): −1.04 log10 | viral load (log10) Mean (SARS-CoV-2; ORF1ab gene, visit 2 (day 2)): 4.71 log10 | viral load (log10) Median (SARS-CoV-2; ORF1ab gene, visit 2 (day 2)): 4.20 log10 | change in viral load from baseline, Mean (SARS-CoV-2; ORF1ab gene, visit 3 (day 4)): −2.14 log10 | change in viral load from baseline, Median (SARS-CoV-2; ORF1ab gene, visit 3 (day 4)): −2.33 log10 | viral load (log10) Mean (SARS-CoV-2; ORF1ab gene, visit 3 (day 4)): 4.10 log10 | viral load (log10) Median (SARS-CoV-2; ORF1ab gene, visit 3 (day 4)): 4.41 log10 | change in viral load from baseline, Mean (SARS-CoV-2; ORF1ab gene, visit 4 (day 6)): −3.39 log10 | change in viral load from baseline, Median (SARS-CoV-2; ORF1ab gene, visit 4 (day 6)): −3.41 log10 | viral load (log10) Mean (SARS-CoV-2; ORF1ab gene, visit 4 (day 6)): 2.42 log10 | viral load (log10) Median (SARS-CoV-2; ORF1ab gene, visit 4 (day 6)): 2.47 log10 | change in viral load from baseline, Mean (SARS-CoV-2; ORF1ab gene, visit 5 (day 14)): −5.19 log10 | change in viral load from baseline, Median (SARS-CoV-2; ORF1ab gene, visit 5 (day 14)): −5.61 log10 | viral load (log10) Mean (SARS-CoV-2; ORF1ab gene, visit 5 (day 14)): 1.04 log10 | viral load (log10) Median (SARS-CoV-2; ORF1ab gene, visit 5 (day 14)): 0.00 log10 | change in viral load from baseline, Mean (SARS-CoV-2; ORF1ab gene, visit 6 (day 28)): −6.15 log10 | change in viral load from baseline, Median (SARS-CoV-2; ORF1ab gene, visit 6 (day 28)): −6.57 log10 | viral load (log10) Mean (SARS-CoV-2; ORF1ab gene, visit 6 (day 28)): 0.05 log10 | viral load (log10) Median (SARS-CoV-2; ORF1ab gene, visit 6 (day 28)): 0.00 log10 | viral load, Fitzmaurice mixed model, Common baseline (SARS-CoV-2; ORF1ab): 6.3 (5.8, 6.8) log10 | viral load change Effect (camostat vs placebo), Fitzmaurice mixed model, visit 2 (SARS-CoV-2; ORF1ab): 0.28 (−0.57, 1.13) log10 | viral load, Fitzmaurice mixed model, visit 2 (SARS-CoV-2; ORF1ab): 5 (4.3, 5.8) log10 | viral load, Fitzmaurice mixed model, visit 2 change (SARS-CoV-2; ORF1ab): −1.2 (−1.9, −0.6) log10 | viral load change Effect (camostat vs placebo), Fitzmaurice mixed model, visit 3(D4) (SARS-CoV-2; ORF1ab): −0.46 (−1.3, 0.39) log10 | viral load, Fitzmaurice mixed model, visit 3(D4) (SARS-CoV-2; ORF1ab): 4.2 (3.5, 4.9) log10 | viral load, Fitzmaurice mixed model, visit 3(D4) change (SARS-CoV-2; ORF1ab): −2.1 (−2.7, −1.5) log10 | viral load change Effect (camostat vs placebo), Fitzmaurice mixed model, visit 4(D6) (SARS-CoV-2; ORF1ab): −0.09 (−1.27, 1.08) log10 | viral load, Fitzmaurice mixed model, visit 4(D6) (SARS-CoV-2; ORF1ab): 2.6 (1.8, 3.5) log10 | viral load, Fitzmaurice mixed model, visit 4(D6) change (SARS-CoV-2; ORF1ab): −3.6 (−4.5, −2.7) log10 | viral load, Fitzmaurice mixed model, Common baseline (SARS-CoV-2; S gene): 5 (4.1, 5.9) log10
